Reference: patent US20070015174A1, “High throughput formulation screening of drug candidates” (priority 2005, published 2007)
In brackets after ≈: the same amount, converted by molar mass. Read-outs that look alike come from different tables or passages of the source.

Key:
[1] = High throughput formulation screening: solubility of compound in 96 formulations (5 μL scale, image capture); type: physicochemical; settings: for solubility: thermodynamic from solid
Description: The solubility of the compound in the various excipients is then evaluated by comparing the captured images (e.g., first, second, third, and fourth images). […] All stock solutions were prepared with ultrapure ASTM Type I water and sterile-filtered using a 0.22 micron filter. The solutions were then attached to the MATRIX MAKER liquid-handling robot for sterile path, positive pressure dispensation into an SBS (Society for Biomolecular Screening) standard-sized 96 deep well plates. The screening formulations are defined in the CRYSTAL MINER software, which drives the MATRIX MAKER and allows for the rapid development of refinement screens for the optimization of lead hits. Once the formulations have been dispensed, the plate is sealed and centrifuged at 2000 rpm to ensure that each well contains a homogeneous solution. […] The DROP MAKER micro-scale liquid handler then dispenses 5 μL of the compound solution into a 96-well SBS format plate. […] Images were then captured of each well by the CRYSTAL MONITOR workstation (Session 1). Then 5 μL of each formulation screening solution were added to separate wells and images were captured for each well (Session 2) as above. Following image capture, the plate was heated to 45° C. for 30 minutes, then agitated for 10 minutes at room temperature during cool down. Additional images are captured on day one (t=1, Session 3) and day three (t=3, Session 4). Images and data annotation are exported to Excel for final report generation. The solubility of triclocarban in the formulations screening set (96 conditions) was obtained after the high throughput screening at target solubility of 10 mg/mL by the method described above: […]

[2] = cited from earlier work

In the case of `O=C(Nc1ccc(Cl)cc1)Nc1ccc(Cl)c(Cl)c1` [TCC, 3,4,4′-trichlorocarbanilide], the solubility in formulation ([1]; 10 mg/mL, IV dosing solution PEG 300/polysorbate 80/EtOH/SGF (40/5/5/50)) is reported as “nearly completely dissolved”, the solubility in formulation ([1]; 10 mg/mL, IV dosing solution PEG 300/polysorbate 80/SGF (45/5/50)) is reported as “nearly completely dissolved” and the solubility in formulation ([1]; 10 mg/mL, NMP/polysorbate 80 (9/1)) is reported as “easily dissolved”. For the same compound, the solubility in formulation ([1]; 10 mg/mL, PEG 300/polysorbate 80 (9/1)) was “easily dissolved”, the solubility in formulation ([1]; 10 mg/mL, PEG 400/polysorbate 80/EtOH (8/1/1)) was “easily dissolved” and the solubility in formulation ([1]; 10 mg/mL, PEG 400/polysorbate (3/1)) was “easily dissolved”. The solubility in formulation ([1]; 10 mg/mL, SEDDS carpryol 90/PEG 400/cremophor EL (4/3/3)) was “dissolved”, the solubility in formulation ([1]; 10 mg/mL, SEDDS labrafac CC/imwitor 988/cremophor (25/27/48)) was “dissolved” and the solubility in formulation ([1]; 10 mg/mL, SEDDS sesame oil/maisine 35-1/polysorbate 80 (25/27/48)) was “dissolved”. For the same compound, the solubility in formulation ([1]; 10 mg/mL, SEDDS soybean oil/maisine 35-1/polysorbate 80/EtOH (35/20/35/10)) was “dissolved”, the solubility in formulation ([1]; 10 mg/mL, cosolvent PEG 400/EtOH (7/3)) was “easily dissolved” and the solubility in formulation ([1]; 10 mg/mL, cosolvent PEG 400/EtOH/PG (4/1/5)) was “easily dissolved”. For the same compound, the solubility ([1]; Carpryol 90 (formulation screening solution), oil or lipid, target 10 mg/mL, Carpryol 90) was about 10000 µg/mL (≈ 31.7 mM), the solubility ([1]; Cremophor EL (formulation screening solution), aqueous with cosolvent or surfactant or cyclodextrin, target 10 mg/mL, Cremophor EL) was about 10000 µg/mL (≈ 31.7 mM) and the solubility ([1]; Labrafil M 1944 CS (formulation screening solution), oil or lipid, target 10 mg/mL, Labrafil M 1944 CS) was about 10000 µg/mL (≈ 31.7 mM). It also gave a solubility ([1]; Labrasol (formulation screening solution), aqueous with cosolvent or surfactant or cyclodextrin, target 10 mg/mL, Labrasol) of about 10000 µg/mL (≈ 31.7 mM), a solubility ([1]; N-methyl-2-pyrrolidinone (formulation screening solution), organic solvent or mixture, target 10 mg/mL, N-methyl-2-pyrrolidinone) of about 10000 µg/mL (≈ 31.7 mM) and a solubility ([1]; Softigen 767 (formulation screening solution), aqueous with cosolvent or surfactant or cyclodextrin, target 10 mg/mL, Softigen 767) of about 10000 µg/mL (≈ 31.7 mM). For the same compound, the solubility ([1]; lauroglycol FCC (formulation screening solution), oil or lipid, target 10 mg/mL, lauroglycol FCC) was about 10000 µg/mL (≈ 31.7 mM), the solubility ([1]; peppermint oil (formulation screening solution), oil or lipid, target 10 mg/mL, peppermint oil) was about 10000 µg/mL (≈ 31.7 mM) and the solubility in formulation ([1]; target 10 mg/mL, 20% TPGS) was “partially dissolved”. For the same compound, the solubility in formulation ([1]; target 10 mg/mL, 20% povidone) was “neither glycerine, safflower oil, sesame oil, nor 20% povidone had any effect”, the solubility in formulation ([1]; target 10 mg/mL, Capmul MCM C8) was “dissolve TCC completely” and the solubility in formulation ([1]; target 10 mg/mL, HPbCD) was “partially dissolved”. For the same compound, the solubility in formulation ([1]; target 10 mg/mL, Imwitor 988) was “dissolve TCC completely”, the solubility in formulation ([1]; target 10 mg/mL, PEG 300) was “dissolve TCC completely” and the solubility in formulation ([1]; target 10 mg/mL, PEG 400) was “dissolve TCC completely”. For the same compound, the solubility in formulation ([1]; target 10 mg/mL, Polysorbate 80) was “dissolve TCC completely”, the solubility in formulation ([1]; target 10 mg/mL, RMbCD) was “partially dissolved” and the solubility in formulation ([1]; target 10 mg/mL, adjustment of pH to between 2 and 10) was “no effect”. For the same compound, the solubility in formulation ([1]; target 10 mg/mL, corn oil) was “partially dissolved”, the solubility in formulation ([1]; target 10 mg/mL, dimethylacetamide) was “dissolve TCC completely” and the solubility in formulation ([1]; target 10 mg/mL, glycerine) was “neither glycerine, safflower oil, sesame oil, nor 20% povidone had any effect”. The solubility in formulation ([1]; target 10 mg/mL, imwitor 380) was “partially dissolved”, the solubility in formulation ([1]; target 10 mg/mL, labrafac CC) was “partially dissolved” and the solubility in formulation ([1]; target 10 mg/mL, maisine 35-1) was “partially dissolved”. The solubility in formulation ([1]; target 10 mg/mL, neobee M-5) was “partially dissolved”, the solubility in formulation ([1]; target 10 mg/mL, oleic acid) was “partially dissolved” and the solubility in formulation ([1]; target 10 mg/mL, safflower oil) was “neither glycerine, safflower oil, sesame oil, nor 20% povidone had any effect”. The solubility in formulation ([1]; target 10 mg/mL, sesame oil) was “neither glycerine, safflower oil, sesame oil, nor 20% povidone had any effect”, the solubility in formulation ([1]; target 10 mg/mL, soybean oil) was “partially dissolved” and the solubility ([2]; 20% RMbCD with additives) was “about 5 mg/mL”. The “solubility in organic solvents” value ([2]; acetone) was “soluble”, the “solubility in organic solvents” value ([2]; propylene glycol) was “to some extent” and the “intrinsic solubility (S0)” value ([2]; pure water, room temperature) was “less than 50 ng/ml”. For the same compound, the solubility in water ([2]; water) was “water-insoluble”.
